Source: patent publication US20110218188A1, “SUBSTITUTED (PYRIDYL)-AZINYLAMINE DERIVATIVES AS FUNGICIDES” (priority 2008, published 2011)
Marks after values point to notes of the source that are not given here.

experiment: Measurement of logP values by HPLC on reversed phase columns (EEC directive 79/831 Annex V.A8); format: physicochemical; conditions: pH 2.7

logP | chromatographic logP | Structure (SMILES)
4.64 | – | CCCC(C)NC(=O)c1cc(-c2ncnc(Nc3ccc(F)c(Cl)c3)n2)ccn1 (stereo not shown) [B200]
3.02 | – | CC(C)N(C)C(=O)c1cc(-c2ncnc(Nc3ccc(F)c(Cl)c3)n2)ccn1 [B208]
3.33 | – | COCC(C1CC1)N(C)C(=O)c1cc(-c2ncnc(Nc3ccc(F)c(Cl)c3)n2)ccn1 (stereo not shown) [B210]
2.82 | – | CSc1cccc(Nc2ncnc(-c3ccnc(C(=O)N4CCCC4)c3)n2)c1 [B211]
3.31 | – | COCC(C)NC(=O)c1cc(-c2ncnc(Nc3cccc(SC)c3)n2)ccn1 (stereo not shown) [B212]
3.15 | – | CSc1cccc(Nc2ncnc(-c3ccnc(C(=O)NC4CC4)c3)n2)c1 [B213]
2.92 | – | COCCNC(=O)c1cc(-c2ncnc(Nc3cccc(SC)c3)n2)ccn1 [B214]
3.02 | – | CSc1cccc(Nc2ncnc(-c3ccnc(C(=O)NCCCN4CCCCCC4=O)c3)n2)c1 [B215]
3.69 | – | CCC(COC)NC(=O)c1cc(-c2ncnc(Nc3cccc(SC)c3)n2)ccn1 (stereo not shown) [B216]
3.53 | – | CSc1cccc(Nc2ncnc(-c3ccnc(C(=O)NC(C)C)c3)n2)c1 [B217]
3.94 | – | CCC(C)NC(=O)c1cc(-c2ncnc(Nc3cccc(SC)c3)n2)ccn1 (stereo not shown) [B218]
3.64 | – | CSc1cccc(Nc2ncnc(-c3ccnc(C(=O)NCC4CC4)c3)n2)c1 [B219]
3.73 | – | CSc1cccc(Nc2ncnc(-c3ccnc(C(=O)NC4CCC4)c3)n2)c1 [B220]
4.44 | – | CCCC(C)NC(=O)c1cc(-c2ncnc(Nc3cccc(SC)c3)n2)ccn1 (stereo not shown) [B221]
3.26 | – | Cc1ccc(Nc2ncnc(-c3ccnc(C(=O)N4CCCC4)c3)n2)cc1Cl [B224]
3.44 | – | Cc1ccc(Nc2ncnc(-c3ccnc(C(=O)NCCCN4CCCCCC4=O)c3)n2)cc1Cl [B228]
4.24 | – | CCC(COC)NC(=O)c1cc(-c2ncnc(Nc3ccc(C)c(Cl)c3)n2)ccn1 (stereo not shown) [B229]
4.04 | – | Cc1ccc(Nc2ncnc(-c3ccnc(C(=O)NC(C)C)c3)n2)cc1Cl [B230]
3.55 | – | CCNC(=O)c1cc(-c2ncnc(Nc3ccc(C)c(Cl)c3)n2)ccn1 [B231]

logP | chromatographic logP | Structure (SMILES)
4.49 | – | CCC(C)NC(=O)c1cc(-c2ncnc(Nc3ccc(C)c(Cl)c3)n2)ccn1 (stereo not shown) [B232]
4.16 | – | Cc1ccc(Nc2ncnc(-c3ccnc(C(=O)NCC4CC4)c3)n2)cc1Cl [B233]
4.29 | – | Cc1ccc(Nc2ncnc(-c3ccnc(C(=O)NC4CCC4)c3)n2)cc1Cl [B234]
5 | – | CCCC(C)NC(=O)c1cc(-c2ncnc(Nc3ccc(C)c(Cl)c3)n2)ccn1 (stereo not shown) [B235]
2.69 | – | COCc1cccc(Nc2ncnc(-c3ccnc(C(=O)N(C)C(COC)C4CC4)c3)n2)c1 (stereo not shown) [B251]
3.29 | – | CC(C)N(C)C(=O)c1cc(-c2ncnc(Nc3cccc(OC(F)(F)F)c3)n2)ccn1 [B269]
2.08 | – | CC(=O)Nc1cccc(Nc2ncnc(-c3ccnc(C(=O)N(C)CCC#N)c3)n2)c1 [B304]
1.94 | – | CC(=O)Nc1cccc(Nc2ncnc(-c3ccnc(C(=O)N(C)CC4CC4)c3)n2)c1 [B306]
1.81 | – | CC(=O)Nc1cccc(Nc2ncnc(-c3ccnc(C(=O)N(C)C(C)C)c3)n2)c1 [B309]
3.05 | – | NC(=S)c1cc(-c2ncnc(Nc3cccc(C(F)F)c3)n2)ccn1 [B320]
2.57 | – | NC(=S)c1cc(-c2ncnc(Nc3cccc(F)c3)n2)ccn1 [B321]
2.47 | – | NC(=S)c1cc(-c2ncnc(Nc3ccc(F)cc3)n2)ccn1 [B322]
3.17 | – | CCCNC(=O)c1cc(-c2ncnc(Nc3cccc(F)c3)n2)ccn1 [B323]
2.09 | – | NC(=O)c1cc(-c2ncnc(Nc3cccc(F)c3)n2)ccn1 [B324]
3.08 | – | C=CCNC(=O)c1cc(-c2ncnc(Nc3cccc(F)c3)n2)ccn1 [B325]
3.25 | – | C#CCN(c1cccc(F)c1)c1ncnc(-c2ccnc(C(=S)N(C)CC)c2)n1 [B345]
2.88 | – | CCN(CC)C(=O)c1cc(-c2ncnc(Nc3ccc(F)c(F)c3)n2)ccn1 [B351]
3.15 | – | CC(C)N(C)C(=O)c1cc(-c2ncnc(Nc3cccc(C(F)(F)F)c3)n2)ccn1 [B360]
2.77 | – | C#CCN(c1cccc(Cl)c1)c1ncnc(-c2ccnc(C(=O)N(C)CCC#N)c2)n1 [B403]

logP | chromatographic logP | Structure (SMILES)
2.11 | – | O=C(O)c1cc(-c2ncnc(Nc3cccc(Cl)c3)n2)ccn1 [B404]
2.55 | – | COC(=O)c1cc(-c2ncnc(Nc3cccc(C(F)F)c3)n2)ccn1 [B406]
1.98 | – | O=C(O)c1cc(-c2ncnc(Nc3cccc(C(F)F)c3)n2)ccn1 [B407]
2.57 | – | CCN(C)C(=O)c1cc(-c2ncnc(Nc3cccc(OC(F)F)c3)n2)ccn1 [B409]
2.98 | – | CN(CC1CC1)C(=O)c1cc(-c2ncnc(Nc3cccc(OC(F)F)c3)n2)ccn1 [B410]
2.98 | – | CN(CC1CC1)C(=O)c1cc(-c2ncnc(Nc3ccc(F)c(C(F)F)c3)n2)ccn1 [B411]
2.34 | – | CON(C)C(=O)c1cc(-c2ncnc(Nc3cccc(C(F)F)c3)n2)ccn1 [B412]
2.64 | – | CCN(OC)C(=O)c1cc(-c2ncnc(Nc3cccc(C(F)F)c3)n2)ccn1 [B413]
2.88 | – | CCON(CC)C(=O)c1cc(-c2ncnc(Nc3cccc(C(F)F)c3)n2)ccn1 [B414]
2.57 | – | CCON(C)C(=O)c1cc(-c2ncnc(Nc3cccc(C(F)F)c3)n2)ccn1 [B415]
2.43 | – | COC(=O)c1cc(-c2ncnc(Nc3ccc(F)c(OC)c3)n2)ccn1 [B416]
2.80 | – | COC(=O)c1cc(-c2ncnc(Nc3ccc(Cl)c(OC)c3)n2)ccn1 [B417]
2.37 | – | COC(=O)c1cc(-c2ncnc(Nc3ccc(OC)c(F)c3)n2)ccn1 [B418]
3.17 | – | COC(=O)c1cc(-c2ncnc(Nc3ccc(C)c(Cl)c3)n2)ccn1 [B419]
2.86 | – | C#CCN(CC)C(=O)c1cc(-c2ncnc(Nc3cccc(C(F)F)c3)n2)ccn1 [B420]
2.90 | – | COC(=O)c1cc(-c2ncnc(Nc3ccc(Br)c(OC)c3)n2)ccn1 [B421]
2.66 | – | CN(C)C(=S)c1cc(-c2ncnc(Nc3cccc(C(F)F)c3)n2)ccn1 [B423]
3.06 | – | CCN(C)C(=S)c1cc(-c2ncnc(Nc3cccc(OC(F)F)c3)n2)ccn1 [B424]

Second part, the compound before the results:

Structure (SMILES) | logP | chromatographic logP
CCOC(=O)c1cc(-c2ccnc(Nc3ccc(OC)nc3)n2)ccn1 [Example A1, ethyl 4-{2-[(6-methoxypyridin-3-yl)amino]-pyrimidin-4-yl}pyridine-2-carboxylate] | – | 1.1
O=C(c1cc(-c2ccnc(Nc3ccnc(Cl)c3)n2)ccn1)N1CC=CCC1 [Example A2] | 2.2 | –
O=C(c1cc(Nc2nccc(-c3ccnc(C(=O)N4CC=CCC4)c3)n2)ccn1)N1CC=CCC1 [Example A3] | 1.6 | –
COCCN(C)C(=O)c1cc(Nc2nccc(-c3ccnc(C(=O)N(C)CCOC)c3)n2)ccn1 [Example A4] | 1.1 | –
O=C(c1cc(-c2ccnc(Nc3ccnc(Cl)c3)n2)ccn1)N1CCCCC1 [Example A5] | 2.23 | –
O=C(c1cc(Nc2nccc(-c3ccnc(C(=O)N4CCCCC4)c3)n2)ccn1)N1CCCCC1 [Example A6] | 1.63 | –
O=C(c1cc(-c2ccnc(Nc3ccnc(Cl)c3)n2)ccn1)N1CCCC1 [Example A7] | 2.08 | –
O=C(c1cc(Nc2nccc(-c3ccnc(C(=O)N4CCCC4)c3)n2)ccn1)N1CCCC1 [Example A8] | 1.37 | –
O=C(c1cc(-c2ccnc(Nc3ccnc(Cl)c3)n2)ccn1)N1CCCC(CO)C1 (stereo not shown) [Example A9] | 1.69 | –
CCCN(CCO)C(=O)c1cc(-c2ccnc(Nc3ccnc(Cl)c3)n2)ccn1 [Example A10] | 1.84 | –
CCCN(CCC)C(=O)c1cc(Nc2nccc(-c3ccnc(C(=O)N(CCC)CCC)c3)n2)ccn1 [Example A12] | 2.54 | –
CCCN(C)C(=O)c1cc(-c2ccnc(Nc3ccnc(Cl)c3)n2)ccn1 [Example A13] | 2.2 | –
CCCN(C)C(=O)c1cc(Nc2nccc(-c3ccnc(C(=O)N(C)CCC)c3)n2)ccn1 [Example A14] | 1.59 | –
CN(CC1CCCO1)C(=O)c1cc(-c2ccnc(Nc3ccnc(Cl)c3)n2)ccn1 (stereo not shown) [Example A15] | 1.99 | –
CN(CC1CCCO1)C(=O)c1cc(Nc2nccc(-c3ccnc(C(=O)N(C)CC4CCCO4)c3)n2)ccn1 (stereo not shown) [Example A16] | 1.35 | –
CCN(C)C(=O)c1cc(-c2ccnc(Nc3ccnc(Cl)c3)n2)ccn1 [Example A17, 4-{2-[(2-chloropyridin-4-yl)amino]pyrimidin-4-yl}-N-ethyl-N-methylpyridine-2-carboxamide] | – | 1.91
CCN(C)C(=O)c1cc(-c2ccnc(Nc3ccnc(C(F)(F)F)c3)n2)ccn1 [Example A18] | 2.22 | –
CCN(C)C(=O)c1cc(Nc2nccc(-c3ccnc(C(=O)N(C)CC)c3)n2)ccn1 [Example A19, N-ethyl-4-[2-({2-[ethyl(methyl)carbamoyl]pyridin-4-yl}amino)pyrimidin-4-yl]-N-methylpyridine-2-carboxamide] | – | 1.19
O=C(NCCCN1CCCCCC1=O)c1cc(-c2ccnc(Nc3ccnc(Cl)c3)n2)ccn1 [Example A20] | 2.33 | –
O=C(NCCCN1CCCCCC1=O)c1cc(Nc2nccc(-c3ccnc(C(=O)NCCCN4CCCCCC4=O)c3)n2)ccn1 [Example A21] | 2.33 | –
O=C(c1cc(-c2ccnc(Nc3ccnc(Cl)c3)n2)ccn1)N1CCOCC1 [Example A22] | 1.69 | –
O=C(c1cc(Nc2nccc(-c3ccnc(C(=O)N4CCOCC4)c3)n2)ccn1)N1CCOCC1 [Example A23] | 0.92 | –
CN(CCC#N)C(=O)c1cc(-c2ccnc(Nc3ccnc(Cl)c3)n2)ccn1 [Example A24] | 1.78 | –
C=CCN(C)C(=O)c1cc(-c2ccnc(Nc3ccnc(Cl)c3)n2)ccn1 [Example A25] | 2.13 | –
CCCN(CC)C(=O)c1cc(-c2ccnc(Nc3ccnc(Cl)c3)n2)ccn1 [Example A26] | 2.51 | –
CCN(CC)C(=O)c1cc(-c2ccnc(Nc3ccnc(Cl)c3)n2)ccn1 [Example A27] | 2.17 | –

same assay, conditions: pH 7.8

logP | Structure (SMILES)
2.04^[c] | NC(=O)c1cc(-c2ncnc(Nc3cccc(C(F)F)c3)n2)ccn1 [B405]
2.02^[c] | COC(=O)c1cc(-c2ncnc(Nc3ccc(OC)c(OC)c3)n2)ccn1 [B422]
2.88^[c] | CCCN(CCC)C(=O)c1cc(-c2ccnc(Nc3ccnc(Cl)c3)n2)ccn1 [Example A11]
